pIC50: −log10 of the molar value. Structures can show the parent of a compound that is named as a salt.
Molecular target: T1, human Glucose-dependent Insulinotropic Polypeptide Receptor (hGIPR) (Homo sapiens, UniProt P48546)
T1 sequence (P48546 22-466): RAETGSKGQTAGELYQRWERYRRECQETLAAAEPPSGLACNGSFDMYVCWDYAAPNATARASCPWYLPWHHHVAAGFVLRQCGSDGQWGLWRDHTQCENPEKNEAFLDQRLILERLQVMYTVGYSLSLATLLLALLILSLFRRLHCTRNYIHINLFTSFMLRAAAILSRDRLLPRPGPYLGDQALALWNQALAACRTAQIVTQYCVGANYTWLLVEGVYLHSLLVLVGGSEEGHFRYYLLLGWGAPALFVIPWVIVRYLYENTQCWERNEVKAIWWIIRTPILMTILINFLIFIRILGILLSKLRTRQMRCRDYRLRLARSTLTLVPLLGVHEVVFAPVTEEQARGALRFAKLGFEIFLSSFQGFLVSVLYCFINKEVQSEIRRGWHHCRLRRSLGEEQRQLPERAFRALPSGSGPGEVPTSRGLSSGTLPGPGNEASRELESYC
Test: Functional in vitro GIPR antagonist potency assay (cAMP HTRF, CHO-K1 cells stably expressing hGIPR, hGIP stimulation at about EC80)
Assay type: cell-based
Conditions: geometric mean, hGIP at estimated EC80, examples marked ^2: overall geometric mean of multiple forms (including salts) tested
Procedure: Example AA. Functional In Vitro GIPR Antagonist Potency Assay
The functional in vitro antagonist potency for test compounds was determined by monitoring intracellular cyclic adenosine monophosphate (cAMP) levels in Chinese hamster ovary (CHO)—K1 cells stably expressing the human Glucose-dependent Insulinotropic Polypeptide Receptor (hGIPR). Following agonist activation, hGIPR associates with the G-protein complex causing the Gαs subunit to exchange bound guanosine diphosphate (GDP) for guanosine triphosphate (GTP), followed by dissociation of the Gαs-GTP complex. The activated Gas subunit can couple to downstream effectors to regulate the levels of second messengers or cAMP within the cell. Thereby, determination of intracellular cAMP levels allows for pharmacological characterization. Intracellular cAMP levels are quantitated using a homogenous assay utilizing the Homogeneous Time Resolved Fluorescence (HTRF) technology from Perkin Elmer. […] The two entities compete for binding to a monoclonal anti-cAMP antibody labeled with cryptate. The specific signal is inversely proportional to the concentration of cAMP in the cells.
Test compounds were solubilized to a concentration of 30 mM in 100% dimethyl sulfoxide (DMSO). An 11-point dilution series using 1 in 3.162-fold serial dilutions was created in 100% DMSO with a top concentration of 8 mM. The serially diluted compound was spotted with an Echo Acoustic liquid handler (Beckman Coulter) into a 384-well assay plate (Corning, Cat No. 3824) at 50 nL/well with duplicate points at each concentration, at a 200× final assay concentration (FAC). The final compound concentration range in the assay was 40 μM to […], with a final DMSO concentration of 0.5%.
Frozen assay-ready vials (at 1×10^7 cells/vial) of CHO-K1 cells stably expressing the Gs-coupled human GIPR receptor (Eurofins, DiscoverX, Cat No. 95-0146C2) were thawed, counted, and resuspended in assay buffer consisting of Hank's Balanced Salt Solution (HBSS, Lonza Cat No. 10-527) containing 20 mM (4-(2-hydroxyethyl)-1-piperazineethanesulfonic acid (HEPES, Lonza, Cat No. 17-737E), 0.1% bovine serum albumin (BSA, Sigma, Cat No. A7979), and 200 μM 3-isobutyl-1-methylxanthine (IBMX, Sigma, Cat No. 15879) at a density of 4×10^5 cells/mL. Cells were added to assay plate (5 μL/well of 4×10^5 cells/mL stock for 2,000 cells/well final) containing 50 nL of 200× FAC test compound, and incubated at 37° C. (95% O2: 5% CO2) for 2 hours, with micro-clime lids (Labcyte, Cat No. LLS-0310). Following the 2-hour cell and compound incubation, a stimulation mix comprised of hGIPR agonist human glucose-dependent insulinotropic polypeptide (hGIP, full length, Sigma Cat No. G2269) in assay buffer/0.1% DMSO was added to the assay plate (5 μL/well) at an estimated EC80 FAC (based on previous hGIP agonist curves) and incubated for another 30 minutes with micro-clime lids at 37° C. (95% O2: 5% CO2), after which intracellular cAMP levels were quantified as per Perkin Elmer's protocol (5 μL of d2 and then 5 μL cryptate, incubated for 1 hour at room temperature). Emission spectra of samples were measured on a Pherastar plate reader (BMG Labtech Inc) using a HTRF protocol (excitation, 320 nm; emission, 665 nm/620 nm).
(95% O2: 5% CO2), with a micro-clime lid. Following the 2-hour cell and DMSO incubation, a hGIP concentration response curve at 2× FAC (12-point curve using 1 in 3 serial dilutions, with triplicate points at each concentration, 100 nM final top concentration) in assay buffer/1% DMSO was added (5 μL/well) and incubated for a further 30 minutes with a micro-clime lid at 37° C. (95% O2: 5% CO2), after which intracellular cAMP levels were quantified and samples measured as described previously. Experiments passed quality control if the agonist concentration used for stimulation fell between the on-the-day EC50-EC90. […]

CC(C)c1ccc(NC(=O)N2CCC[C@@H]2C(=O)Nc2ccc(-c3ccc(C(=O)O)cc3)cn2)cc1 [Example 5, Ammonium 4-{6-[(1-{[4-(propan-2-yl)phenyl]carbamoyl}-D-prolyl)amino]pyridin-3-yl}benzoate]
pIC50: 8.04

CC(C)c1ccc(NC(=O)N2CCC[C@@H]2C(=O)Nc2ccc(-c3ccc(C(=O)O)cc3)cc2F)cc1 [Example 6, 3′-Fluoro-4′-[(1-{[4-(propan-2-yl)phenyl]carbamoyl}-D-prolyl)amino][1,1′-biphenyl]-4-carboxylic acid]
pIC50: 8.19

O=C(O)c1ccc(-c2ccc(NC(=O)[C@H]3CCCN3C(=O)Nc3ccc(C4CC4)cc3)cc2)cc1 [Example 7, Ammonium 4′-({1-[(4-cyclopropylphenyl)carbamoyl]-D-prolyl}amino)[1,1′-biphenyl]-4-carboxylate]
pIC50: 8.09

CC(C)c1ccc(NC(=O)N2CCC[C@@H]2C(=O)Nc2ccc(-c3ncc(C(=O)O)cn3)cc2)cc1 [Example 8, ammonium 2-{4-[(1-{[4-(propan-2-yl)phenyl]carbamoyl}-D-prolyl)amino]phenyl}pyrimidine-5-carboxylate]
pIC50: 6.82

CC(C)c1ccc(NC(=O)N2CCC[C@@H]2C(=O)Nc2ccc(-c3cccc(C(=O)O)n3)cc2)cc1 [Example 9, ammonium 6-{4-[(1-{[4-(propan-2-yl)phenyl]carbamoyl}-D-prolyl)amino]phenyl}pyridine-2-carboxylate]
pIC50: 6.89

CC(C)c1ccc(NC(=O)N2CCC[C@@H]2C(=O)Nc2ccc3cc(C(=O)O)ccc3c2)cc1 [Example 10, 6-[(1-{[4-(propan-2-yl)phenyl]carbamoyl}-D-prolyl)amino]naphthalene-2-carboxylic acid]
pIC50: 7.17

Cc1cc(NC(=O)[C@H]2CCCN2C(=O)Nc2ccc(C(C)C)cc2)cc2ccc(C(=O)O)nc12 [Example 11, 8-methyl-6-[(1-{[4-(propan-2-yl)phenyl]carbamoyl}-D-prolyl)amino]quinoline-2-carboxylic acid, trifluoroacetate salt]
pIC50: 6.74

C=C(C)c1ccc(NC(=O)N2CCC[C@@H]2C(=O)Nc2ccc(-c3ccc(C(=O)O)cc3)cc2)cc1 [Example 12, 4′-[(1-{[4-(prop-1-en-2-yl)phenyl]carbamoyl}-D-prolyl)amino][1,1′-biphenyl]-4-carboxylic acid]
pIC50: 8.00

O=C(O)c1ccc(-c2ccc(NC(=O)[C@H]3CCCN3C(=O)Nc3ccc(Cl)cc3)cc2)cc1 [Example 13, ammonium 4′-({1-[(4-chlorophenyl)carbamoyl]-D-prolyl}amino)[1,1′-biphenyl]-4-carboxylate]
pIC50: 7.92

CC(C)c1ccc(NC(=O)N2CCC[C@@H]2C(=O)Nc2ccc(-c3ccnc(C(=O)O)c3)cc2)cc1 [Example 14, ammonium 4-{4-[(1-{[4-(propan-2-yl)phenyl]carbamoyl}-D-prolyl)amino]phenyl}pyridine-2-carboxylate]
pIC50: 7.06

CC(C)c1ccc(NC(=O)N2CCC[C@@H]2C(=O)Nc2c(F)cc(-c3ccc(C(=O)O)cc3)cc2F)cc1 [Example 15, 3′,5′-difluoro-4′-[(1-{[4-(propan-2-yl)phenyl]carbamoyl}-D-prolyl)amino][1,1′-biphenyl]-4-carboxylic acid]
pIC50: 8.09

O=C(O)c1ccc(-c2ccc(NC(=O)[C@H]3CCCN3C(=O)Nc3ccc(C(F)(F)F)cc3)cc2)cc1 [Example 16, Ammonium 4′-[(1-{[4-(trifluoromethyl)phenyl]carbamoyl}-D-prolyl)amino][1,1′-biphenyl]-4-carboxylate]
pIC50: 8.43

Cc1cc(NC(=O)N2CCC[C@@H]2C(=O)Nc2ccc(-c3ccc(C(=O)O)nc3)cc2)ccc1C(F)(F)F [Example 17, 5-{4-[(1-{[3-Methyl-4-(trifluoromethyl)phenyl]carbamoyl}-D-prolyl)amino]phenyl}pyridine-2-carboxylic acid]
pIC50: 7.85

CC(C)c1ccc(NC(=O)N2CCC[C@@H]2C(=O)Nc2ccc(-c3ccc(C(=O)O)cc3)nc2)cc1 [Example 18, 4-{5-[(1-{[4-(Propan-2-yl)phenyl]carbamoyl}-D-prolyl)amino]pyridin-2-yl}benzoic acid]
pIC50: 7.82

Cc1cc(NC(=O)N2CCC[C@@H]2C(=O)Nc2ccc(-c3ccc(C(=O)O)nc3)cc2)ccc1C(C)C [Example 19, 5-{4-[(1-{[3-Methyl-4-(propan-2-yl)phenyl]carbamoyl}-D-prolyl)amino]phenyl}pyridine-2-carboxylic acid]
pIC50: 7.96

Cc1nc(C(=O)O)ccc1-c1ccc(NC(=O)[C@H]2CCCN2C(=O)Nc2ccc(C(C)C)cc2)cc1 [Example 20, 6-Methyl-5-{4-[(1-{[4-(propan-2-yl)phenyl]carbamoyl}-D-prolyl)amino]phenyl}pyridine-2-carboxylic acid]
pIC50: 7.92

COc1cc(-c2ccc(NC(=O)[C@H]3CCCN3C(=O)Nc3ccc(C(C)C)cc3)cc2)ccc1C(=O)O [Example 21, 3-Methoxy-4′-[(1-{[4-(propan-2-yl)phenyl]carbamoyl}-D-prolyl)amino][1,1′-biphenyl]-4-carboxylic acid]
pIC50: 7.96

O=C(O)c1ccc(-c2ccc(NC(=O)[C@H]3CCCN3C(=O)Nc3ccc(C(F)(F)F)cc3)cn2)cc1 [Example 22, 4-{5-[(1-{[4-(Trifluoromethyl)phenyl]carbamoyl}-D-prolyl)amino]pyridin-2-yl}benzoic acid]
pIC50: 7.21

O=C(O)c1ccc(-c2ccc(NC(=O)[C@H]3CCCN3C(=O)Nc3ccc(C4CCC4)cc3)cc2)cc1 [Example 23, 4′-({1-[(4-Cyclobutylphenyl)carbamoyl]-D-prolyl}amino)[1,1′-biphenyl]-4-carboxylic acid]
pIC50: 8.57

O=C(O)c1ccc(-c2cnc(NC(=O)[C@H]3CCCN3C(=O)Nc3ccc(C(F)(F)F)cc3)c(F)c2)cc1 [Example 24, 4-{5-Fluoro-6-[(1-{[4-(trifluoromethyl)phenyl]carbamoyl}-D-prolyl)amino]pyridin-3-yl}benzoic acid]
pIC50: 6.96

CC(C)c1ccc(NC(=O)N2CCC[C@@H]2C(=O)Nc2ncc(-c3ccc(C(=O)O)cc3)cc2F)cc1 [Example 25, 4-{5-Fluoro-6-[(1-{[4-(propan-2-yl)phenyl]carbamoyl}-D-prolyl)amino]pyridin-3-yl}benzoic acid]
pIC50: 7.07

O=C(O)c1ccc(-c2ccc(NC(=O)[C@H]3CCCN3C(=O)Nc3ccc(C4CC4)c(C(F)(F)F)c3)cc2)cc1 [Example 26, 4′-[(1-{[4-Cyclopropyl-3-(trifluoromethyl)phenyl]carbamoyl}-D-prolyl)amino][1,1′-biphenyl]-4-carboxylic acid]
pIC50: 8.68

Cc1nc(C(=O)O)ccc1-c1ccc(NC(=O)[C@H]2CCCN2C(=O)Nc2ccc(C(C)C)c(F)c2)cc1 [Example 27, 5-{4-[(1-{[3-Fluoro-4-(propan-2-yl)phenyl]carbamoyl}-D-prolyl)amino]phenyl}-6-methylpyridine-2-carboxylic acid]
pIC50: 8.32

Source: patent US20240366598A1, “GLUCOSE-DEPENDENT INSULINOTROPIC POLYPEPTIDE RECEPTOR ANTAGONISTS AND USES THEREOF” (Pfizer Inc., priority 2023, published 2024)
